The target of one experiment is T1, human B1R receptor (Homo sapiens, UniProt P46663).
T1 construct: host or cells: CHO K1 cells (Chinese hamster ovary), stably transfected
T1 sequence (P46663 1-353): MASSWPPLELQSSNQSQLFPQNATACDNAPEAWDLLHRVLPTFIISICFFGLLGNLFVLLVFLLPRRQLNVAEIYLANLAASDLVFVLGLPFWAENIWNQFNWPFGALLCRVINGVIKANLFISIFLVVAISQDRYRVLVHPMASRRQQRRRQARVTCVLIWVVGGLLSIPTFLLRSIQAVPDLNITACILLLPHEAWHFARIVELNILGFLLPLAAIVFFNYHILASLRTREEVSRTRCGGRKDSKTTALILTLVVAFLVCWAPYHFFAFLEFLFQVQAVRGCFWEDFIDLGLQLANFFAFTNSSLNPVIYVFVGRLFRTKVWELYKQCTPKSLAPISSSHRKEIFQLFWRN
The experiment in a line: Functional study on the bradykinin receptor 1 (B1R), FLIPR Ca2+ assay, hB1R cells. The following applies: CHO-K1, test substance 10 μM, agonist Lys-Des-Arg9-bradykinin 0.5 nM, % inhibition compared with the maximum achievable inhibition, read-out: B1R Antagonism, human [10 μM] % Inhibition. The class given is cell-based. In outline:
(§1)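 CHO K1 cells stably expressing human or rat B1R, Fluo-4-loaded; test compound 10 μM added first (activation % vs agonist), then after 10 min 0.5 nM Lys-Des-Arg9-bradykinin (human) or 100 nM Des-Arg9-bradykinin (rat). Ca2+ peak fluorescence by FLIPR; % inhibition relative to maximum achievable inhibition.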

The next experiment has as its target T2, B1R receptor of the rat (Rattus norvegicus, UniProt P97583).
T2 construct: host or cells: CHO K1 cells (Chinese hamster ovary), stably transfected
T2 sequence (P97583 1-337): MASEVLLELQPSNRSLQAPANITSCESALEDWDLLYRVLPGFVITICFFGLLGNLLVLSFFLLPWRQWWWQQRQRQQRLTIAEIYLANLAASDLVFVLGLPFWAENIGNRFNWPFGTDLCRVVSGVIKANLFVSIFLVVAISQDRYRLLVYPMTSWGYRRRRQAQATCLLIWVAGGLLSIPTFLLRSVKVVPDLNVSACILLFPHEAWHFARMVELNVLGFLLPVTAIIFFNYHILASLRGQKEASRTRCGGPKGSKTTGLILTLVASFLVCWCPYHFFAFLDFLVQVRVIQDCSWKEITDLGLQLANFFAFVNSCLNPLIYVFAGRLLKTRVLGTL
The experiment in a line: Functional study on the bradykinin receptor 1 (B1R), FLIPR Ca2+ assay, rB1R cells. The class given is cell-based. The following applies: CHO-K1, test substance 10 μM, agonist Des-Arg9-bradykinin 100 nM, % inhibition compared with the maximum achievable inhibition, read-out: B1R Antagonism, rat [10 μM] % Inhibition. In outline:
as §1

In general, inhibition refers to the relative decrease from the control value, in per cent.

On to `CN(C)c1ccc(C2CCCN2C(=O)COCC2CCCCN2S(=O)(=O)c2c(Cl)cccc2Cl)cc1` (stereo not shown) [Example 528, 2-((1-(2,6-dichlorophenylsulfonyl)piperidin-2-yl)methoxy)-1-(2-(4-(dimethylamino)phenyl)pyrrolidin-1-yl)ethanone], for which the inhibition at 10 µM on human B1R receptor came out at 88.2%; on B1R receptor of the rat, 102%.
For `O=C(COCC1CCCCN1S(=O)(=O)c1c(Cl)cccc1Cl)N1CCCN(Cc2ccccc2)CC1` (stereo not shown) [Example 529, 1-(4-benzyl-1,4-diazepan-1-yl)-2-((1-(2,6-dichlorophenylsulfonyl)piperidin-2-yl)methoxy)ethanone], in that order: 106% and 101%.
For `CC(C)N(Cc1ccc(N(C)C)cc1)C(=O)COCC1CCCCN1S(=O)(=O)c1c(Cl)cccc1Cl` (stereo not shown) [Example 530, 2-((1-(2,6-dichlorophenylsulfonyl)piperidin-2-yl)methoxy)-N-(4-(dimethylamino)benzyl)-N-isopropylacetamide], in that order: 93.1% and 101%.
Take `COc1cc(C)c(S(=O)(=O)N2CCCC2COCC(=O)N2CCCN(c3ncccc3C#N)CC2)c(C)c1` (stereo not shown) [Example 531, 2-(4-(2-((1-(4-methoxy-2,6-dimethylphenylsulfonyl)pyrrolidin-2-yl)methoxy)acetyl)-1,4-diazepan-1-yl)nicotinonitrile]: the inhibition at 10 µM at human B1R receptor came out at 92.6%; at B1R receptor of the rat, 96.2%.
On to `COc1cc(C)c(S(=O)(=O)N2CCCCC2COCC(=O)N(C)CCN2CCCCC2)c(C)c1` (stereo not shown) [Example 532, 2-((1-(4-methoxy-2,6-dimethylphenylsulfonyl)piperidin-2-yl)methoxy)-N-methyl-N-(2-(piperidin-1-yl)ethyl)acetamide], for which the inhibition at 10 µM at human B1R receptor turned out to be 96.4%; on B1R receptor of the rat, 108%.
Turning to `COc1cc(C)c(S(=O)(=O)N2CCCCC2COCC(=O)N2CCC(CCN3CCCCC3)CC2)c(C)c1` (stereo not shown) [Example 533, 2-((1-(4-methoxy-2,6-dimethylphenylsulfonyl)piperidin-2-yl)methoxy)-1-(4-(2-(piperidin-1-yl)ethyl)piperidin-1-yl)ethanone], the inhibition at 10 µM at human B1R receptor is 106%; on B1R receptor of the rat, 108%.
In the case of `COc1cc(C)c(S(=O)(=O)N2CCCCC2COCC(=O)N2CCCCC2CCN2CCOCC2)c(C)c1` (stereo not shown) [Example 534, 2-((1-(4-methoxy-2,6-dimethylphenylsulfonyl)piperidin-2-yl)methoxy)-1-(2-(2-morpholinoethyl)piperidin-1-yl)ethanone], the inhibition at 10 µM on human B1R receptor turned out to be 104%; at B1R receptor of the rat, 107%.
For `COc1cc(C)c(S(=O)(=O)N2CCCCC2COCC(=O)Nc2cc(C)[nH]n2)c(C)c1` (stereo not shown) [Example 535, 2-((1-(4-methoxy-2,6-dimethylphenylsulfonyl)piperidin-2-yl)methoxy)-N-(5-methyl-1H-pyrazol-3-yl)acetamide], the inhibition at 10 µM stood at 48.4% on human B1R receptor and 107% at B1R receptor of the rat.
In the case of `COc1cc(C)c(S(=O)(=O)N2CCCCC2COCC(=O)Nc2cc(-c3ccccc3)[nH]n2)c(C)c1` (stereo not shown) [Example 536, 2-((1-(4-methoxy-2,6-dimethylphenylsulfonyl)piperidin-2-yl)methoxy)-N-(5-phenyl-1H-pyrazol-3-yl)acetamide], the inhibition at 10 µM is 63.1% on human B1R receptor and 107% at B1R receptor of the rat.
For the compound `COc1cc(C)c(S(=O)(=O)N2CCCCC2COCC(=O)Nc2cc(-c3ccc(Cl)cc3)n[nH]2)c(C)c1` (stereo not shown) [Example 537, N-(3-(4-chlorophenyl)-1H-pyrazol-5-yl)-2-((1-(4-methoxy-2,6-dimethylphenylsulfonyl)piperidin-2-yl)methoxy)acetamide], the inhibition at 10 µM came out at 12.5% at human B1R receptor and 98.7% at B1R receptor of the rat.
In the case of `COc1cc(C)c(S(=O)(=O)N2CCCCC2COCC(=O)Nc2[nH]ncc2-c2ccc(OC)c(OC)c2)c(C)c1` (stereo not shown) [Example 538, N-(4-(3,4-dimethoxyphenyl)-1H-pyrazol-5-yl)-2-((1-(4-methoxy-2,6-dimethylphenylsulfonyl)piperidin-2-yl)methoxy)acetamide], the inhibition at 10 µM was -11.8% at human B1R receptor and 106% at B1R receptor of the rat.
In the case of `COc1cc(C)c(S(=O)(=O)N2CCCCC2COCC(=O)Nc2cc(-c3cccs3)n[nH]2)c(C)c1` (stereo not shown) [Example 539, 2-((1-(4-methoxy-2,6-dimethylphenylsulfonyl)piperidin-2-yl)methoxy)-N-(3-(thiophen-2-yl)-1H-pyrazol-5-yl)acetamide], the inhibition at 10 µM is 38.8% at human B1R receptor and 107% at B1R receptor of the rat.
Consider `COc1cc(C)c(S(=O)(=O)N2CCCCC2COCC(=O)Nc2cc(-c3ccccc3OC)[nH]n2)c(C)c1` (stereo not shown) [Example 540, 2-((1-(4-methoxy-2,6-dimethylphenylsulfonyl)piperidin-2-yl)methoxy)-N-(5-(2-methoxyphenyl)-1H-pyrazol-3-yl)acetamide], for which the inhibition at 10 µM on human B1R receptor worked out at 7.17%; on B1R receptor of the rat it was 100%.
As to `COc1cccc(-c2cc(NC(=O)COCC3CCCCN3S(=O)(=O)c3c(C)cc(OC)cc3C)n[nH]2)c1` (stereo not shown) [Example 541, 2-((1-(4-methoxy-2,6-dimethylphenylsulfonyl)piperidin-2-yl)methoxy)-N-(5-(3-methoxyphenyl)-1H-pyrazol-3-yl)acetamide], the inhibition at 10 µM at human B1R receptor is 103%; at B1R receptor of the rat, 108%.
With `COc1cc(C)c(S(=O)(=O)N2CCCCC2COCC(=O)Nc2cc(-c3cccc(F)c3)[nH]n2)c(C)c1` (stereo not shown) [Example 542, N-(5-(3-fluorophenyl)-1H-pyrazol-3-yl)-2-((1-(4-methoxy-2,6-dimethylphenylsulfonyl)piperidin-2-yl)methoxy)acetamide], the values for the inhibition at 10 µM at human B1R receptor and at B1R receptor of the rat were 49.2% and 107%, respectively.
For `COc1ccc(-c2cc(NC(=O)COCC3CCCCN3S(=O)(=O)c3c(C)cc(OC)cc3C)n[nH]2)cc1` (stereo not shown) [Example 543, 2-((1-(4-methoxy-2,6-dimethylphenylsulfonyl)piperidin-2-yl)methoxy)-N-(5-(4-methoxyphenyl)-1H-pyrazol-3-yl)acetamide] the same measures were 21.1% and 105%.
`COc1cc(C)c(S(=O)(=O)N2CCCCC2COCC(=O)Nc2cc(-c3ccc(C)cc3)n[nH]2)c(C)c1` (stereo not shown) [Example 544, 2-((1-(4-methoxy-2,6-dimethylphenylsulfonyl)piperidin-2-yl)methoxy)-N-(3-p-tolyl-1H-pyrazol-5-yl)acetamide]: the inhibition at 10 µM on human B1R receptor was 11.7%; at B1R receptor of the rat, 107%.
For `COc1cc(C)c(S(=O)(=O)N2CCCCC2COCC(=O)Nc2cc(-c3ccccc3)n[nH]2)c(C)c1` (stereo not shown) [Example 545, 2-((1-(4-methoxy-2,6-dimethylphenylsulfonyl)piperidin-2-yl)methoxy)-N-(3-phenyl-1H-pyrazol-5-yl)acetamide], in that order: 39.8% and 106%.
Turning to `COc1cc(C)c(S(=O)(=O)N2CCCCC2COCC(=O)Nc2ccc3ccccc3n2)c(C)c1` (stereo not shown) [Example 546, 2-((1-(4-methoxy-2,6-dimethylphenylsulfonyl)piperidin-2-yl)methoxy)-N-(quinolin-2-yl)acetamide], the inhibition at 10 µM at human B1R receptor came out at 7.44%; on B1R receptor of the rat it was 104%.
As to `COc1ccc(S(=O)(=O)N2c3ccccc3CC2COCC(=O)N2CCC(CCN3CCCCC3)CC2)cc1` (stereo not shown) [Example 547, 2-((1-(4-methoxyphenylsulfonyl)indolin-2-yl)methoxy)-1-(4-(2-(piperidin-1-yl)ethyl)piperidin-1-yl)ethanone], the figures for the inhibition at 10 µM at human B1R receptor and at B1R receptor of the rat were 77.4% and 100%, respectively.
For `COc1ccc(S(=O)(=O)N2c3ccccc3CC2COCC(=O)N2CCN(CCn3c(C)ccc3C)CC2)cc1` (stereo not shown) [Example 548, 1-(4-(2-(2,5-dimethyl-1H-pyrrol-1-yl)ethyl)piperazin-1-yl)-2-((1-(4-methoxyphenylsulfonyl)indolin-2-yl)methoxy)ethanone], in that order: 24.7% and 95.4%.
Take `O=C(COCC1CCCCN1S(=O)(=O)c1c(Cl)cccc1Cl)NCc1ccc(CN2CCOCC2)cc1` (stereo not shown) [Example 549, 2-((1-(2,6-dichlorophenylsulfonyl)piperidin-2-yl)methoxy)-N-(4-(morpholinomethyl)benzyl)acetamide]: the inhibition at 10 µM on human B1R receptor was 75.8%; at B1R receptor of the rat it was 99%.
On to `O=C(COCC1CCCCN1S(=O)(=O)c1c(Cl)cccc1Cl)N1CCN(c2ccc(C(F)(F)F)cc2)CC1` (stereo not shown) [Example 550, 2-((1-(2,6-dichlorophenylsulfonyl)piperidin-2-yl)methoxy)-1-(4-(4-(trifluoromethyl)phenyl)piperazin-1-yl)ethanone], for which the results for the inhibition at 10 µM on human B1R receptor and at B1R receptor of the rat were 57.8% and 101%, respectively.

Values taken from patent publication US8435978B2, “Substituted sulfonamide compounds” (Gruenenthal GmbH, priority 2006, dated 2013).
